Among the data in patent publication US5455356A, “Fungicidal 1-aryl-1-[α-(triazolyl)alkyl]-1-silacycloalkanes and their preparation methods” (priority 1993, dated 1995) are inhibition of growth values, retold here.

Common to all, as to type: cell-based
The subject of assay [1] is Botritis cinerea. Kind of assay: In vitro mycelial/spore growth on potato-sucrose-agar, percent disease control (BC). The settings on record: read-out: % controlled, BC. How it is done: (§1) The compounds of this invention were dissolved respectively in acetone in an amount equal to 10% of the final volume and then in purified water at the concentration of 100 ppm and 50 ppm.
(§2) Each of the solution was mixed with potato-sucrose-agar medium in 6" petri dish and one of the fungi was spotted at the center of the dish. The dish was incubated in growth room for several days. The percent disease control was derived from the radii of spore growth. The screening tests in vitro condition are well-known to those skilled in the art.
(§3) The following fungi were used for the screening.
10) Bo. ci.; Botritis cinerea

For assay [2], the system named is Botryosphaeri. The experiment in a line: In vitro mycelial/spore growth on potato-sucrose-agar, percent disease control (BD). The settings on record: read-out: % controlled, BD. How it is done: as §1, §2, §3
4) Bo. do (Ma); Botryosphaeri

The test system of assay [3] is GC. Kind of assay: In vitro mycelial/spore growth on potato-sucrose-agar, percent disease control (GC). Conditions: read-out: % controlled, GC; for inhibition of growth at 50 ppm: GC. On the procedure: as §1, §2, §3
Assay [4] has as its system Fusarium moniliforme. The experiment in a line: In vitro mycelial/spore growth on potato-sucrose-agar, percent disease control (FM). Conditions: Fusarium verticillioides, Fusarium moniliforme, read-out: % controlled, FM. How it is done: as §1, §2, §3
8) Fu. mo.; Fusarium moniliforme

Assay [5] deals with Phytophthora capsisi. Kind of assay: In vitro mycelial/spore growth on potato-sucrose-agar, percent disease control (PC). Conditions: read-out: % controlled, PC. On the procedure:
as §1, §2, §3
2) Phy. ca.; Phytophthora capsisi

Assay [6] concerns Rhizopus sp. The experiment in a line: In vitro mycelial/spore growth on potato-sucrose-agar, percent disease control (RS, second column). Conditions: read-out: % controlled, RS; for inhibition of growth at 50 ppm: Rhizopus sp.; for inhibition of growth at 200 ppm: Rhizopus. How it is done: as §1, §2, §3
9) Rhi. sp.; Rhizopus sp.

The subject of assay [7] is Rhizoctonia solani. Kind of assay: In vitro mycelial/spore growth on potato-sucrose-agar, percent disease control (RS, first column). The settings on record: read-out: % controlled, RS. On the procedure: as §1, §2, §3
7) Rhi. so.; Rhizoctonia solani

The test system of assay [8] is Pyricalaria oryzae. The experiment in a line: In vitro mycelial/spore growth on potato-sucrose-agar, percent disease control (PO). Conditions: read-out: % controlled, PO. How it is done:
as §1, §2, §3
6) Py. or.; Pyricalaria oryzae

As for `CC(n1cncn1)[Si]1(c2ccc(Cl)cc2)CCCCC1` (stereo not drawn) [1-(4-chlorophenyl)-1-[α-(1H-1,2,4-triazole-1-yl)ethyl]-1-silacyclohexane], the inhibition of growth at 50 ppm in assay [1] came to 100%; in assay [2], 100%; in assay [3] it was 100%; in assay [4] it was 100%; in assay [5], 75%; in assay [6] it was 77%. For the same molecule, the inhibition of growth at 50 ppm in assay [7] and in assay [8] was 100% in each case. In addition, the inhibition of growth at 200 ppm in assay [1] came out at 100%; in assay [2] it was 100%; in assay [3], 100%; in assay [4] it was 100%; in assay [5], 100%; in assay [6], 90%. Besides, the inhibition of growth at 200 ppm in assay [7] and in assay [8] was 100% each time.
In the case of `CC(n1cncn1)[Si]1(c2ccc(Cl)cc2Cl)CCCC1` (stereo not drawn) [1-(2,4-dichlorophenyl)-1-[α-(1H-1,2,4-triazole-1-yl)ethyl)-1-silacyclopentane], the inhibition of growth at 50 ppm in assay [1] was found to be 92%; in assay [2] it was 95%; in assay [3], 100%; in assay [4], 100%; in assay [5] it was 83%; in assay [6] it was 68%. Also, the inhibition of growth at 50 ppm in assay [7] was 69%; in assay [8], 100%. The inhibition of growth at 200 ppm was found to be 100% in assay [1]; 100% in assay [2]; 100% in assay [3]; 100% in assay [4]; 96% in assay [5]; 94% in assay [6]. In addition, the inhibition of growth at 200 ppm came to 87% in assay [7] and 100% in assay [8].
Regarding `Fc1ccc([Si]2(Cn3cncn3)CCCC2)c(F)c1` [1-(2,4-difluorophenyl)-1-(1H-1,2,4-triazole-1-yl)methyl-1-silacyclopentane], the inhibition of growth at 50 ppm in assay [1] was 100%; in assay [2] it was 100%; in assay [3], 100%; in assay [4], 100%; in assay [5], 32%; in assay [6] it was 63%. Besides, the inhibition of growth at 50 ppm in assay [7] is 76%; in assay [8], 100%. For the same molecule, the inhibition of growth at 200 ppm in assay [1] turned out to be 100%; in assay [2] it was 100%; in assay [3], 100%; in assay [4], 100%; in assay [5], 85%; in assay [6] it was 72%. Further, the inhibition of growth at 200 ppm in assay [7] and in assay [8] was 100% throughout.
With `CC(n1cncn1)[Si]1(c2ccc(F)cc2)CCCC1` (stereo not drawn) [1-(4-fluorophenyl)-1-[α-(1H-1,2,4-triazole-1-yl)ethyl]-1-silacyclopentane], the inhibition of growth at 50 ppm in assay [1] was found to be 100%; in assay [2] it was 100%; in assay [3], 100%; in assay [4] it was 94%; in assay [5] it was 45%; in assay [6], 59%. Further, the inhibition of growth at 50 ppm in assay [7] and in assay [8] was 100% each time. The inhibition of growth at 200 ppm in assay [1] is 100%; in assay [2] it was 100%; in assay [3] it was 100%; in assay [4], 100%; in assay [5] it was 100%; in assay [6] it was 75%. In addition, the inhibition of growth at 200 ppm in assay [7] and in assay [8] was 100% throughout.
With `CC(n1cncn1)[Si]1(c2ccc(-c3ccccc3)cc2)CCCCC1` (stereo not drawn) [1-(4-biphenyl)-1-[α-(1H-1,2,4-triazole-1-yl)ethyl]-1-silacyclohexane], the inhibition of growth at 50 ppm in assay [1] turned out to be 100%; in assay [2], 100%; in assay [3], 100%; in assay [4], 100%; in assay [5], 92%; in assay [6], 79%. Besides, the inhibition of growth at 50 ppm in assay [7] and in assay [8] was 100% each time. The inhibition of growth at 200 ppm in assay [1] worked out at 100%; in assay [2], 100%; in assay [3] it was 100%; in assay [4] it was 100%; in assay [5], 100%; in assay [6] it was 89%. In addition, the inhibition of growth at 200 ppm in assay [7] and in assay [8] was 100% each time.
As for `CCOc1ccc([Si]2(Cn3cncn3)CCCC2)cc1` [1-(4-ethoxyphenyl)-1-(1H-1,2,4-triazole-1-yl)methyl-1-silacyclopentane], the inhibition of growth at 50 ppm in assay [1] worked out at 70%; in assay [2] it was 82%; in assay [3], 100%; in assay [4], 68%; in assay [5] it was 40%; in assay [6] it was 66%. Besides, the inhibition of growth at 50 ppm in assay [7] was found to be 72%; in assay [8] it was 100%. Further, the inhibition of growth at 200 ppm in assay [1] was 74%; in assay [2], 89%; in assay [3], 100%; in assay [4], 79%; in assay [5], 100%; in assay [6], 77%. The inhibition of growth at 200 ppm in assay [7] and in assay [8] was 100% in each case.
With `CCOc1ccc([Si]2(C(C)n3cncn3)CCCC2)cc1` (stereo not drawn) [1-(4-ethoxyphenyl)-1-[α-(1H-1,2,4-triazole-1-yl)ethyl]-1-silacyclopentane], the inhibition of growth at 50 ppm in assay [1] was found to be 79%; in assay [2], 70%; in assay [3] it was 100%; in assay [4] it was 93%; in assay [5], 43%; in assay [6] it was 63%. The inhibition of growth at 50 ppm in assay [7] and in assay [8] was 100% each time. For the same molecule, the inhibition of growth at 200 ppm in assay [1] came out at 94%; in assay [2], 95%; in assay [3], 100%; in assay [4], 100%; in assay [5], 91%; in assay [6], 90%. For the same molecule, the inhibition of growth at 200 ppm in assay [7] and in assay [8] was 100% in each case.
As to `CC(n1cncn1)[Si]1(c2ccc(Cl)cc2)CCCC1` (stereo not drawn) [1-(4-chlorophenyl)-1-[α-(1H-1,2,4-triazole-1-yl)ethyl]-1-silacyclopentane], the inhibition of growth at 50 ppm in assay [1] was 100%; in assay [2] it was 100%; in assay [3], 100%; in assay [4] it was 100%; in assay [5], 30%; in assay [6] it was 42%. Moreover, the inhibition of growth at 50 ppm in assay [7] and in assay [8] was 100% each time. Besides, the inhibition of growth at 200 ppm amounted to 100% in assay [1]; 100% in assay [2]; 100% in assay [3]; 100% in assay [4]; 100% in assay [5]; 60% in assay [6]. The inhibition of growth at 200 ppm in assay [7] and in assay [8] was 100% in each case.
On to `Clc1ccc([Si]2(Cn3cncn3)CCCC2)c(Cl)c1` [1-(2,4-dichlorophenyl)-1-(1H-1,2,4-triazole-1-yl)methyl-1-silacyclopentane], for which the inhibition of growth at 50 ppm in assay [1] was 99%; in assay [2] it was 97%; in assay [3], 100%; in assay [4], 100%; in assay [5] it was 72%; in assay [6], 59%. In addition, the inhibition of growth at 50 ppm in assay [7] came to 65%; in assay [8], 100%. Also, the inhibition of growth at 200 ppm in assay [1] was 100%; in assay [2] it was 100%; in assay [3], 100%; in assay [4], 100%; in assay [5], 79%; in assay [6], 70%. Moreover, the inhibition of growth at 200 ppm in assay [7] and in assay [8] was 100% each time.
